Source: US12583866B2, “Pyrido[2,3-b][1,4]oxazines or tetrahydropyrido[2,3-b][1,4]oxazepines as IAP antagonists” (BEIGENE, LTD., priority 2020, dated 2026)
Counter-ions that a name gives are not always drawn.

Tests used:
[1] = molecular target: T1, recombinant human XIAP-BIR3 protein (Homo sapiens, UniProt P98170); assay: Recombinant human XIAP-BIR3 biochemical assay (HTRF, peptide displacement); details: 3.7 nM XIAP-BIR3, 7.6 nM AbuRPF-K(5-Fam)-NH2 peptide, read-out: Protein binding IC50 (nM) XIAP
T1 construct: recombinant human XIAP-BIR3 protein; purchased Reaction biology APT-11-374
Outline: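 3.7 nM His-tagged XIAP-BIR3 was preincubated 1 h RT with compound (top 10 µM, 4-fold, 10 points) in 20 mM HEPES pH 7.5, 50 mM NaCl, 0.005% Tween-20, 1 mM DTT. 7.6 nM AbuRPF-K(5-Fam)-NH2 peptide was then added, followed by anti-6His Tb cryptate, 1 h each. HTRF 520/490 nm ratio; four-parameter logistic IC50.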

[2] = molecular target: T2, recombinant human cIAP2-BIR3 protein (Homo sapiens, UniProt Q13489); assay: Recombinant human c-IAP2-BIR3 biochemical assay (HTRF, peptide displacement); details: 3.7 nM cIAP2-BIR3, 3.7 nM AbuRPF-K(5-Fam)-NH2 peptide, read-out: Protein binding IC50 (nM) c-IAP2
T2 construct: recombinant human cIAP2-BIR3 protein; purchased Reaction biology APT-11-372
Outline: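 3.7 nM protein pre-incubated 1 h at room temperature with compounds (top 10 uM, 4-fold, 10 points) in 20 mM HEPES pH 7.5, 50 mM NaCl, 0.005% Tween-20, 1 mM DTT. Then 3.7 nM AbuRPF-K(5-Fam)-NH2 for 1 h, then anti-6His Tb cryptate 1 h. IC50 from 520/490 nm HTRF ratio, four-parameter logistic fit.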

[3] = molecular target: T3, recombinant human cIAP1-BIR3 protein (Homo sapiens, UniProt Q13490); assay: Recombinant human c-IAP1-BIR3 biochemical assay (HTRF, peptide displacement); details: 1.2 nM cIAP1-BIR3, 3 nM AbuRPF-K(5-Fam)-NH2 peptide, read-out: Protein binding IC50 (nM) c-IAP1
T3 construct: recombinant human cIAP1-BIR3 protein; purchased Reaction biology APT-11-370
Outline: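 1.2 nM cIAP1-BIR3 preincubated 1 h at room temperature with compound (10 points, 4-fold, top 10 uM) in 20 mM HEPES pH 7.5, 50 mM NaCl, 1 mM DTT; 3 nM AbuRPF-K(5-Fam)-NH2 then added for 1 h, then anti-6His Tb cryptate for 1 h. 520/490 nm ratio; IC50 by four-parameter logistic fit.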

T3 sequence (Q13490 253-363 limits assumed): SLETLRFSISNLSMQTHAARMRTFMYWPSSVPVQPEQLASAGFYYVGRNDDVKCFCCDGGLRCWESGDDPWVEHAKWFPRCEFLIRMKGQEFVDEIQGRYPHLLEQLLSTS
T2 sequence (Q13489 238-349 limits assumed): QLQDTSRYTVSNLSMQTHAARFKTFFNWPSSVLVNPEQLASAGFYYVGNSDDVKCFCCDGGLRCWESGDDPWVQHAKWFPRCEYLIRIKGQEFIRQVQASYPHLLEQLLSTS
T1 sequence (P98170 241-356 limits assumed): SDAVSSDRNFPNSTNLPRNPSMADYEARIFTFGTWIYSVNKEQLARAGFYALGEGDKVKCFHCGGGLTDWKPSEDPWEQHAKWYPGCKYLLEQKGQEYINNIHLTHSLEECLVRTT

Row | SMILES | IC50 [1] [nM] | IC50 [2] [nM] | IC50 [3] [nM]
1 | C[C@@H]1CN(CC(=O)N2c3cc(Cc4ccc(F)cc4)c(CO)nc3OC[C@@H]2C)[C@@H](CN2CCOC[C@H]2CO)CN1 [Compound 54, 1-((S)-7-(4-fluorobenzyl)-6-(hydroxymethyl)-2-methyl-2,3-dihydro-1H-pyrido[2,3-b][1,4]oxazin-1-yl)-2-((2R,5R)-2-(((R)-3-(hydroxymethyl)morpholino)methyl)-5-methylpiperazin-1-yl)ethan-1-one] | 25 | 2.8 | 1.7
2 | C[C@@H]1CN(CC(=O)N2c3cc(Cc4ccc(F)cc4F)c(C(N)=O)nc3OC[C@@H]2C)[C@@H](CN2[C@H](C)COC[C@H]2C)CN1 [Example 83, (S)-7-(2,4-difluorobenzyl)-1-(2-((2R,5R)-2-(((3R,5R)-3,5-dimethylmorpholino)methyl)-5-methylpiperazin-1-yl)acetyl)-2-methyl-2,3-dihydro-1H-pyrido[2,3-b][1,4]oxazine-6-carboxamide] | 7.2 | 0.4 | 0.2
3 | C[C@@H]1CN(CC(=O)N2c3cc(Cc4ccc(F)cc4)c(CO)nc3OC[C@@H]2C)[C@@H](CN2C[C@@H]3C[C@H]2CO3)CN1 [Example 85, 2-((2R,5R)-2-(((1S,4S)-2-oxa-5-azabicyclo[2.2.1]heptan-5-yl)methyl)-5-methylpiperazin-1-yl)-1-((S)-7-(4-fluorobenzyl)-6-(hydroxymethyl)-2-methyl-2,3-dihydro-1H-pyrido[2,3-b][1,4]oxazin-1-yl)ethan-1-one] | 20 | 0.72 | 0.68
4 | COCCOCCNC(=O)c1nc2c(cc1Cc1ccc(F)cc1)N(C(=O)CN1C[C@@H](C)NC[C@@H]1CN1[C@H](C)COC[C@H]1C)[C@@H](C)CO2 [Example 67, (S)-1-(2-((2R,5R)-2-(((3R,5R)-3,5-dimethylmorpholino)methyl)-5-methylpiperazin-1-yl)acetyl)-7-(4-fluorobenzyl)-N-(2-(2-methoxyethoxy)ethyl)-2-methyl-2,3-dihydro-1H-pyrido[2,3-b][1,4]oxazine-6-carboxamide] | 8.2 | 0.56 | 0.29
5 | C[C@@H]1CN(CC(=O)N2CCOc3nc(C#N)c(Cc4ccc(F)cc4)cc32)[C@@H](CN2CCOC[C@H]2C)CN1 [Compound 1, 7-(4-fluorobenzyl)-1-(2-((2R,5R)-5-methyl-2-(((R)-3-methylmorpholino)methyl)piperazin-1-yl)acetyl)-2,3-dihydro-1H-pyrido[2,3-b][1,4]oxazine-6-carbonitrile formate] | 26 | 0.9 | 0.5
6 | C[C@@H]1CN(CC(=O)N2CCOc3nc(O)c(Cc4ccc(F)cc4)cc32)[C@@H](CN2CCOC[C@H]2C)CN1 [Compound 9, 1-(7-(4-fluorobenzyl)-6-hydroxy-2,3-dihydro-1H-pyrido[2,3-b][1,4]oxazin-1-yl)-2-((2R,5R)-5-methyl-2-(((R)-3-methylmorpholino)methyl)piperazin-1-yl)ethan-1-one] | 10 | 1.3 | 0.85
7 | C[C@@H]1CN(CC(=O)N2c3cc(Cc4ccc(F)cc4)c(C(=O)NCCN(C)C)nc3OC[C@@H]2C)[C@@H](CN2[C@H](C)COC[C@H]2C)CN1 [Compound 97, (S)—N-(2-(dimethylamino)ethyl)-1-(2-((2R,5R)-2-(((3R,5R)-3,5-dimethylmorpholino)methyl)-5-methylpiperazin-1-yl)acetyl)-7-(4-fluorobenzyl)-2-methyl-2,3-dihydro-1H-pyrido[2,3-b][1,4]oxazine-6-carboxamide] | 12.5 | 0.51 | 0.27
8 | COC[C@H]1COc2nc(CO)c(Cc3ccc(F)cc3)cc2N1C(=O)CN1C[C@@H](C)NC[C@@H]1CN1[C@H](C)COC[C@H]1C [Compound 58, 2-((2R,5R)-2-(((3R,5R)-3,5-dimethylmorpholino)methyl)-5-methylpiperazin-1-yl)-1-((S)-7-(4-fluorobenzyl)-6-(hydroxymethyl)-2-(methoxymethyl)-2,3-dihydro-1H-pyrido[2,3-b][1,4]oxazin-1-yl)ethan-1-one] | 9.5 | 0.17 | 0.11
9 | C[C@@H]1CN(CC(=O)N2c3cc(Cc4ccc(F)cc4)c(CO)nc3OC[C@@H]2C)[C@@H](CN2CCOC[C@H]2C(F)(F)F)CN1 [Compound 91A, 1-((S)-7-(4-fluorobenzyl)-6-(hydroxymethyl)-2-methyl-2,3-dihydro-1H-pyrido[2,3-b][1,4]oxazin-1-yl)-2-((2R,5R)-5-methyl-2-(((S)-3-(trifluoromethyl)morpholino)methyl)piperazin-1-yl)ethan-1-one] | 30 | 1.25 | 0.72
10 | C[C@@H]1CN(CC(=O)N2CCOc3ncc(Cc4ccc(F)cc4)cc32)[C@@H](CN2C[C@@H]3C[C@H]2CO3)CN1 [Compound 13, 2-((2R,5R)-2-(((1S,45)-2-oxa-5-azabicyclo[2.2.1]heptan-5-yl)methyl)-5-methylpiperazin-1-yl)-1-(7-(4-fluorobenzyl)-2,3-dihydro-1H-pyrido[2,3-b][1,4]oxazin-1-yl)ethan-1-one] | 24 | 1.5 | 1.02
11 | C[C@@H]1CN(CC(=O)N2c3cc(Cc4ccc(F)cc4)c(C(N)=O)nc3OC[C@@H]2C)[C@@H](CN2CCOC[C@H]2C)CN1 [Compound 31, (S)-7-(4-fluorobenzyl)-2-methyl-1-(2-((2R,5R)-5-methyl-2-(((R)-3-methylmorpholino)methyl)piperazin-1-yl)acetyl)-2,3-dihydro-1H-pyrido[2,3-b][1,4]oxazine-6-carboxamide] | 5.6 | 0.71 | 0.33

Now those with a lower IC50 [1], led by results:

Row | IC50 [1] [nM] | IC50 [2] [nM] | IC50 [3] [nM] | SMILES
12 | 4.2 | 0.27 | 0.2 | COCCC(=O)Nc1nc2c(cc1Cc1ccc(F)cc1)N(C(=O)CN1C[C@@H](C)NC[C@@H]1CN1[C@H](C)COC[C@H]1C)[C@@H](C)CO2 [Compound 121]
13 | 5.4 | 0.36 | 0.25 | C[C@@H]1CN(CC(=O)N2c3cc(Cc4ccc(F)cc4)c(-c4ccc(F)cc4)nc3OC[C@@H]2C)[C@@H](CN2[C@H](C)COC[C@H]2C)CN1 [Compound 113]
14 | 5.4 | 1.3 | 0.53 | CCOc1nc2c(cc1Cc1ccc(F)cc1)N(C(=O)CN1C[C@@H](C)NC[C@@H]1CN1CCOC[C@H]1C)CCO2 [Compound 17, 1-(6-ethoxy-7-(4-fluorobenzyl)-2,3-dihydro-1H-pyrido[2,3-b][1,4]oxazin-1-yl)-2-((2R,5R)-5-methyl-2-(((R)-3-methylmorpholino)methyl)piperazin-1-yl)ethan-1-one]
15 | 3.2 | 0.31 | 0.17 | C[C@@H]1CN(CC(=O)N2c3cc(Cc4ccc(F)cc4)c(C(=O)N[C@@H]4CCOC4)nc3OC[C@@H]2C)[C@@H](CN2[C@H](C)COC[C@H]2C)CN1 [Example 78, (S)-1-(2-((2R,5R)-2-(((3R,5R)-3,5-dimethylmorpholino)methyl)-5-methylpiperazin-1-yl)acetyl)-7-(4-fluorobenzyl)-2-methyl-N—((R)-tetrahydrofuran-3-yl)-2,3-dihydro-1H-pyrido[2,3-b][1,4]oxazine-6-carboxamide]
16 | 4.49 | 0.24 | 0.15 | C[C@@H]1CN(CC(=O)N2c3cc(Cc4ccc(F)cc4)c(CO)nc3OC[C@@H]2C)[C@@H](CN2[C@H](C)COC[C@H]2C)CN1 [Compound 24]
17 | 4.4 | 0.35 | 0.2 | C[C@@H]1CN(CC(=O)N2c3cc(Cc4ccc(F)cc4)c(NC(=O)C4CC4)nc3OC[C@@H]2C)[C@@H](CN2[C@H](C)COC[C@H]2C)CN1 [Compound 119, N—((S)-1-(2-((2R,5R)-2-(((3R,5R)-3,5-dimethylmorpholino)methyl)-5-methylpiperazin-1-yl)acetyl)-7-(4-fluorobenzyl)-2-methyl-2,3-dihydro-1H-pyrido[2,3-b][1,4]oxazin-6-yl)cyclopropanecarboxamide]
18 | 3.2 | 0.23 | 0.17 | C[C@@H]1CN(CC(=O)N2c3cc(Cc4ccc(F)cc4)c(C(=O)NC4CC4)nc3OC[C@@H]2C)[C@@H](CN2[C@H](C)COC[C@H]2C)CN1 [Example 63]
19 | 5.1 | 0.43 | 0.24 | C[C@@H]1CN(CC(=O)N2c3cc(Cc4ccc(F)cc4)c(C(=O)N4CCC(F)(F)CC4)nc3OC[C@@H]2C)[C@@H](CN2[C@H](C)COC[C@H]2C)CN1 [Compound 103, 1-((S)-6-(4,4-difluoropiperidine-1-carbonyl)-7-(4-fluorobenzyl)-2-methyl-2,3-dihydro-1H-pyrido[2,3-b][1,4]oxazin-1-yl)-2-((2R,5R)-2-(((3R,5R)-3,5-dimethylmorpholino)methyl)-5-methylpiperazin-1-yl)ethan-1-one]
